The results in this text go back to patent US9255078B2, “Micheliolide derivatives, medicinal composition, producing method and usage thereof” (ACCENDATECH, priority 2010, dated 2016).

What all share (type): cell-based
Conditions in all cases: incubated 18 hours, read-out: inhibitory activity against different cancer cells (IC50)

Assay [1] relates to HL-60. As to the kind of experiment: MTT assay, HL-60 acute leukemia cell lines. The method, then:
(§1) A variety of cancer cells are suspended to 2×10^5/mL, and then added into 24-hole Round-bottomed tissue culture plate. After that micheliolide and its derivatives are added, herein a test with one density occupies 5 holes. The resulting suspension are incubated (under 37° C., 5% CO2) for 18 hours to allow the compounds to take effect. A absorbance (A) value is measured by using the method of MTT assay and an enzyme-linked detector under 570 nm wavelength, and then the inhibitory activity of the compounds is concluded.
(§2) In Table 1, HL-60, K562, MCF-7, CNE-1, CNE-2, SW620, A549, HepG2, Ec9706, SGC7901, SW1116, A498, ASPC-1, HT-29, HeLa, GL15, B16F1, T24, SKOV3, SW579, PC-3, represents acute leukemia cell lines, Chronic leukemia cell lines, Breast cancer cell lines, High differentiation nasopharyngeal carcinoma cell line, Poorly differentiated nasopharyngeal carcinoma cell lines, Colorectal cancer cell line, Lung cancer cell lines, Hepatocellular carcinoma cell lines, Esophageal cancer cell line, Gastric cancer cell line, Colon cancer cell line, Renal cell carcinoma cell line, Pancreatic cancer cell line, Colon cancer cell lines, uterine cervical cancer cell lines, Horny man neuroblastoma cell lines, Melanoma cell line, human bladder cancer cell line, ovarian cancer cell lines, thyroid cancer cells, prostate cancer cell lines, respectively.
A general note: Tetrazolium dyes change colour on reduction, which living cells bring about.

The test system of assay [2] is K562. The assay can be described thus: MTT assay, K562 chronic leukemia cell lines. The method, then: as §1, §2
Assay [3] has as its system MCF-7. As to the kind of experiment: MTT assay, MCF-7 breast cancer cell lines. On the procedure: as §1, §2
Assay [4] deals with CNE-1. As to the kind of experiment: MTT assay, CNE-1 high differentiation nasopharyngeal carcinoma cell line. On the procedure: as §1, §2
Assay [5] concerns CNE-2. The assay can be described thus: MTT assay, CNE-2 poorly differentiated nasopharyngeal carcinoma cell lines. On the procedure:
as §1, §2

Assay [6] concerns SW620. As to the kind of experiment: MTT assay, SW620 colorectal cancer cell line. The method, then: as §1, §2
Assay [7] deals with A549. The assay can be described thus: MTT assay, A549 lung cancer cell lines. The method, then:
as §1, §2

Assay [8] deals with HepG-2. As to the kind of experiment: MTT assay, HepG-2 hepatocellular carcinoma cell lines. On the procedure: as §1, §2
The subject of assay [9] is Ec9706. The assay can be described thus: MTT assay, Ec9706 esophageal cancer cell line. On the procedure: as §1, §2
For assay [10], the system named is SGC7901. As to the kind of experiment: MTT assay, SGC7901 gastric cancer cell line. On the procedure:
as §1, §2

Assay [11] has as its system SW1116. The assay can be described thus: MTT assay, SW1116 colon cancer cell line. On the procedure:
as §1, §2

For assay [12], the system named is A498. The assay can be described thus: MTT assay, A498 renal cell carcinoma cell line. The method, then: as §1, §2
For assay [13], the system named is ASPC-1. The assay can be described thus: MTT assay, ASPC-1 pancreatic cancer cell line. The method, then:
as §1, §2

In assay [14] the test system is HT-29. As to the kind of experiment: MTT assay, HT-29 colon cancer cell lines. On the procedure: as §1, §2
Assay [15] deals with HeLa. The assay can be described thus: MTT assay, HeLa uterine cervical cancer cell lines. On the procedure:
as §1, §2

In assay [16] the test system is GL15. As to the kind of experiment: MTT assay, GL15 neuroblastoma cell lines. The method, then: as §1, §2
In assay [17] the test system is B16F1. As to the kind of experiment: MTT assay, B16F1 melanoma cell line. On the procedure: as §1, §2
Assay [18] deals with T24. As to the kind of experiment: MTT assay, T24 human bladder cancer cell line. The method, then: as §1, §2
Assay [19] concerns SKOV3. The assay can be described thus: MTT assay, SKOV3 ovarian cancer cell lines. The method, then:
as §1, §2

The test system of assay [20] is SW579. The assay can be described thus: MTT assay, SW579 thyroid cancer cells. On the procedure: as §1, §2
For assay [21], the system named is PC-3. The assay can be described thus: MTT assay, PC-3 prostate cancer cell lines. The method, then: as §1, §2

Molecules are shown by their SMILES. Counter-ions that a name gives are not always drawn. Like-named read-outs stand apart in the source and are kept apart here.

Broadly, the IC50 is the concentration at which inhibition is half-maximal. As to `CC1=C2CC[C@@](C)(O)[C@@H]2[C@H]2OC(=O)[C@@H](CN(C)C)[C@@H]2CC1` [Compound II, 11βH,13-Dihydro, 13-dimethylaminomicheliolide], the concentration for half-maximal inhibition (IC50) in assay [1] amounted to 2.4 nM; in assay [2], 4.2 nM; in assay [3], 4.6 nM; in assay [4] it was 11.2 nM; in assay [5] (Homo sapiens, CNE-2, 18 h), 16.5 nM; in assay [6], 5.8 nM. The half-maximal inhibitory concentration (IC50) in assay [7] turned out to be 7.2 nM; in assay [8] it was 4.5 nM; in [9] (Homo sapiens, EC9706, 18 h) it was 9.2 nM; in assay [10] (Homo sapiens, SGC-7901, 18 h) it was 14.6 nM; in assay [11], 11.5 nM; in [12] (Homo sapiens, A498, 18 h), 12.4 nM. Further, the IC50 was found to be 3.9 nM in assay [13]; 4.8 nM in assay [14]; 9.4 nM in assay [15]; 12.6 nM in [16]; 3.4 nM in assay [17]; 14.2 nM in [18] (Homo sapiens, T-24, 18 h). In addition, the half-maximal inhibitory concentration (IC50) is 5.9 nM in assay [19]; 17.3 nM in assay [20] (SW579, 18 h); 8.7 nM in assay [21].

In the case of `C=C1C(=O)O[C@H]2[C@H]1CCC(C)=C1CC[C@@](C)(OC(=O)CC)[C@@H]12` [Compound III, 4-propionylmicheliolide], the IC50 in assay [1] (Homo sapiens, HL-60, 18 h) is 4.5 nM; in [2] (Homo sapiens, K562, 18 h), 6.7 nM; in assay [3] (Homo sapiens, MCF7, 18 h), 3.4 nM; in assay [4] (18 h), 5.9 nM; in [5] (Homo sapiens, CNE-2, 18 h), 12.4 nM; in [6] (Homo sapiens, SW-620, 18 h), 5.6 nM. Moreover, the IC50 was found to be 7.7 nM in assay [7] (Homo sapiens, A549, 18 h); 15.4 nM in assay [8] (Homo sapiens, HepG2, 18 h); 7.6 nM in assay [9] (Homo sapiens, EC9706, 18 h); 14.7 nM in [10] (Homo sapiens, SGC-7901, 18 h); 21.5 nM in assay [11] (Homo sapiens, SW 1116, 18 h); 5.3 nM in [12] (Homo sapiens, A498, 18 h). The half-inhibitory concentration (IC50) in assay [13] (Homo sapiens, ASPC1, 18 h) was 15.1 nM; in [14] (Homo sapiens, HT-29, 18 h), 9.8 nM; in assay [15] (Homo sapiens, 18 h), 17.3 nM; in [16] (Neuroblastoma cell, 18 h) it was 14.3 nM; in assay [17] (Mus musculus, B16-F1, 18 h), 13.2 nM; in assay [18] (Homo sapiens, T-24, 18 h) it was 13.6 nM. The concentration for half-maximal inhibition (IC50) in [19] (Homo sapiens, SK-OV-3, 18 h) was 9.4 nM; in assay [20] (SW579, 18 h) it was 22.5 nM; in [21] (Homo sapiens, PC-3, 18 h), 11.4 nM.

As to `C=C1C(=O)O[C@H]2[C@H]1CC[C@]1(C)O[C@@]13CC[C@@](C)(O)[C@H]23` [Compound IV, 1,10-Epoxymicheliolide], the 50% inhibitory concentration (IC50) in [1] (Homo sapiens, HL-60, 18 h) was determined as 5.8 nM; in assay [2] (Homo sapiens, K562, 18 h) it was 9.7 nM; in assay [3] (Homo sapiens, MCF7, 18 h) it was 8.9 nM; in [4] (18 h), 6.7 nM; in assay [5] (Homo sapiens, CNE-2, 18 h), 5.6 nM; in assay [6] (Homo sapiens, SW-620, 18 h), 3.8 nM. Further, the concentration for half-maximal inhibition (IC50) in [7] (Homo sapiens, A549, 18 h) came to 5.7 nM; in assay [8] (Homo sapiens, HepG2, 18 h), 7.4 nM; in assay [9] (Homo sapiens, EC9706, 18 h), 6.6 nM; in [10] (Homo sapiens, SGC-7901, 18 h) it was 13.4 nM; in assay [11] (Homo sapiens, SW 1116, 18 h), 11.7 nM; in [12] (Homo sapiens, A498, 18 h), 4.3 nM. Besides, the concentration for half-maximal inhibition (IC50) in [13] (Homo sapiens, ASPC1, 18 h) worked out at 26.4 nM; in assay [14] (Homo sapiens, HT-29, 18 h), 9.8 nM; in assay [15] (Homo sapiens, 18 h), 9.7 nM; in assay [16] (Neuroblastoma cell, 18 h), 21.5 nM; in assay [17] (Mus musculus, B16-F1, 18 h), 5.2 nM; in assay [18] (Homo sapiens, T-24, 18 h), 7.9 nM. Moreover, the concentration for half-maximal inhibition (IC50) was found to be 10.4 nM in assay [19] (Homo sapiens, SK-OV-3, 18 h); 12.4 nM in assay [20] (SW579, 18 h); 17.2 nM in assay [21] (Homo sapiens, PC-3, 18 h).

In the case of `CC1=C2CC[C@@](C)(O)[C@@H]2[C@H]2OC(=O)[C@@H](CN(C)C)[C@@H]2CC1` [Compound V, 11βH,13-Dihydro, 13-dimethylaminomicheliolide hydrochloride], the IC50 in assay [1] (hydrochloride) worked out at 11.5 nM; in assay [2] (hydrochloride), 21.4 nM; in assay [3] (hydrochloride) it was 26.8 nM; in [4] (hydrochloride), 22.5 nM; in [5] (hydrochloride) it was 16.9 nM; in [6] (hydrochloride), 13.5 nM. Further, the half-inhibitory concentration (IC50) in assay [7] (hydrochloride) was found to be 18.1 nM; in assay [8] (hydrochloride), 27.9 nM; in [9] (hydrochloride), 15.7 nM; in [10] (hydrochloride) it was 24.9 nM; in [11] (hydrochloride) it was 31.2 nM; in assay [12] (hydrochloride), 16.3 nM. Further, the half-inhibitory concentration (IC50) in assay [13] (hydrochloride) was determined as 33.6 nM; in [14] (hydrochloride), 19.2 nM; in assay [15] (hydrochloride), 33.4 nM; in assay [16] (hydrochloride), 25.8 nM; in assay [17] (hydrochloride) it was 18.6 nM; in assay [18] (hydrochloride) it was 22.5 nM. The IC50 in [19] (hydrochloride) is 15.4 nM; in [20] (hydrochloride), 32.6 nM; in [21] (hydrochloride), 23.5 nM.
